Results from US7598382B2, “Aryl substituted imidazoquinolines” (Coley Pharmaceutical Group, Inc., priority 2002, dated 2009).
Counter-ions that a name gives are not always drawn.

| Structure (SMILES) | melting point |
| --- | --- |
| CCOCc1nc2c(N)nc3cc(-c4ccccc4)ccc3c2n1CC(C)(C)NC(=O)NC1CCCCC1 [Example 203, N-[2-(4-Amino-2-ethoxymethyl-7-phenyl-1H-imidazo[4,5-c]quinolin-1-yl)-1,1-dimethylethyl]-N′-cyclohexylurea] | 152 to 156 °C |
| CCCC(=O)NCCCCn1c(COCC)nc2c(N)nc3cc(-c4cccnc4)ccc3c21 [Example 372, N-{4-[4-Amino-2-ethoxymethyl-7-(pyridin-3-yl)-1H-imidazo[4,5-c]quinolin-1-yl]butyl}butyramide] | 150 to 152 °C |
| CCOCc1nc2c(N)nc3cc(-c4ccccc4)ccc3c2n1CCCCN1CCCS1(=O)=O [Example 152, 1-[4-(1,1-Dioxidoisothiazolidin-2-yl)butyl]-2-ethoxymethyl-7-phenyl-1H-imidazo[4,5-c]quinolin-4-amine] | 167 to 168.5 °C |
| CCCc1nc2c(N)nc3cc(-c4cncc(CO)c4)ccc3c2n1CC(C)(C)O [Example 420, 1-[4-Amino-7-(5-hydroxymethylpyridin-3-yl)-2-propyl-1H-imidazo[4,5-c]quinolin-1-yl]-2-methylpropan-2-ol] | 225 to 226 °C |
| CCOCc1nc2c(N)nc3c(-c4cccnc4)cccc3c2n1CC(C)(C)O [Example 485, 1-[4-Amino-2-ethoxymethyl-6-(pyridin-3-yl)-1H-imidazo[4,5-c]quinolin-1-yl]-2-methylpropan-2-ol] | 199 to 201 °C |
| CCCc1nc2c(N)nc3cc(/C=C/c4ccccc4OC)ccc3c2n1CC(C)C [Example 445, (E)-7-[2-(2-Methoxyphenyl)vinyl]-1-(2-methylpropyl)-2-propyl-1H-imidazo[4,5-c]quinolin-4-amine] | 214 to 216 °C |
| CCCOc1ccc(-c2ccc3c(c2)nc(N)c2nc(COCC)n(CC(C)C)c23)cc1 [Example 107, 2-Ethoxymethyl-1-(2-methylpropyl)-7-(4-propoxyphenyl)-1H-imidazo[4,5-c]quinolin-4-amine] | 209 to 210 °C |
| CCCc1nc2c(N)nc3cc(/C=C/c4cccc(S(N)(=O)=O)c4)ccc3c2n1CC(C)C [Example 440, (E)-3-{2-[4-Amino-1-(2-methylpropyl)-2-propyl-1H-imidazo[4,5-c]quinolin-7-yl]vinyl}benzenesulfonamide] | > 250 °C |
| CC(C)Cn1cnc2c(N)nc3ccc(CCc4ccncc4)cc3c21 [Example 425, 1-(2-Methylpropyl)-8-(2-pyridin-4-ylethyl)-1H-imidazo[4,5-c]quinolin-4-amine] | 221 to 224 °C |
| CCOCc1nc2c(N)nc3cc(-c4ccncc4)ccc3c2n1CC(C)C [Example 116, 2-Ethoxymethyl-1-(2-methylpropyl)-(7-pyridin-4-yl)-1H-imidazo[4,5-c]quinolin-4-amine] | 211 to 213 °C |
| CCOCc1nc2c(N)nc3cc(-c4cccc(C(=O)NCC(C)C)c4)ccc3c2n1CCCOC [Example 171, 3-[4-Amino-2-ethoxymethyl-1-(3-methoxypropyl)-1H-imidazo[4,5-c]quinolin-7-yl]-N-(2-methylpropyl)benzamide] | 209 to 210 °C |
| COCCc1nc2c(N)nc3cc(-c4ccsc4)ccc3c2n1CC(C)(C)O [Example 137, 1-[4-Amino-2-(2-methoxyethyl)-7-(thiophen-3-yl)-1H-imidazo[4,5-c]quinolin-1-yl]-2-methylpropan-2-ol] | 233 to 234 °C |
| CC(C)Cn1cnc2c(N)nc3ccc(CCCCc4ccccc4)cc3c21 [Example 426, 1-(2-Methylpropyl)-8-(4-phenylbutyl)-1H-imidazo[4,5-c]quinolin-4-amine] | 176 to 177 °C |
| CCc1nc2c(N)nc3ccc(-c4ccccc4)cc3c2n1CC(C)C [Example 16, 2-Ethyl-1-isobutyl-8-phenyl-1H-imidazo[4,5-c]quinolin-4-amine] | 233 to 235 °C |
| CCOCc1nc2c(N)nc3cc(-c4cccnc4)ccc3c2n1CCN1CCN(S(C)(=O)=O)CC1 (hydrate or solvate) [Example 415, 2-Ethoxymethyl-1-{2-[4-(methanesulfonyl)piperazin-1-yl]ethyl}-7-(pyridin-3-yl)-1H-imidazo[4,5-c]quinolin-4-amine] | 205 to 207 °C |
| CCOCc1nc2c(N)nc3cc(-c4cccnc4)ccc3c2n1CCCCN1CCCS1(=O)=O [Example 153, 1-[4-(1,1-Dioxidoisothiazolidin-2-yl)-butyl]-2-ethoxymethyl-7-(pyridin-3-yl)-1H-imidazo[4,5-c]quinolin-4-amine] | 171 to 173 °C |
| COCCc1nc2c(N)nc3cc(-c4cccc(NS(C)(=O)=O)c4)ccc3c2n1CCCN1CCCC1=O [Example 186, N-(3-{4-Amino-2-(2-methoxyethyl)-1-[3-(2-oxopyrrolidin-1-yl)propyl]-1H-imidazo[4,5-c]quinolin-7-yl}phenyl)methanesulfonamide] | 210 to 213 °C |
| CCCNC(=O)NCCCCn1c(CCC)nc2c(N)nc3cc(-c4cccnc4)ccc3c21 (hydrate or solvate) [Example 384] | 184 to 185 °C |
| CCOCc1nc2c(N)nc3cc(-c4ccc(C(=O)N5CCOCC5)cc4)ccc3c2n1CCCOC [Example 170, {4-[4-Amino-2-ethoxymethyl-1-(3-methoxypropyl)-1H-imidazo[4,5-c]quinolin-7-yl]phenyl}morpholin-4-ylmethanone] | 163 to 165 °C |

| Structure (SMILES) | melting point |
| --- | --- |
| CCCc1nc2c(N)nc3cc(CCc4cccc(S(N)(=O)=O)c4)ccc3c2n1CC(C)C [Example 456, 3-{2-[4-Amino-1-(2-methylpropyl)-2-propyl-1H-imidazo[4,5-c]quinolin-7-yl]ethyl}benzenesulfonamide] | 250 to 251 °C |
| COCc1nc2c(N)nc3cc(-c4cccc(C(=O)N5CCOCC5)c4)ccc3c2n1CC(C)(C)O (hydrate or solvate) [Example 401, {3-[4-Amino-1-(2-hydroxy-2-methylpropyl)-2-methoxymethyl-1H-imidazo[4,5-c]quinolin-7-yl]phenyl}morpholin-4-ylmethanone] | 176 to 177 °C |
| CCCS(=O)(=O)NCCCCn1c(COCC)nc2c(N)nc3cc(-c4cccnc4)ccc3c21 [Example 376, N-{4-[4-Amino-2-ethoxymethyl-7-(pyridin-3-yl)-1H-imidazo[4,5-c]quinolin-1-yl]butyl}propane-1-sulfonamide] | 178 to 180 °C |
| CCOCc1nc2c(N)nc3ccc(C=Cc4ccccc4)cc3c2n1CC(C)(C)O [Example 147, 1-(4-Amino-2-ethoxymethyl-8-styryl-1H-imidazo[4,5-c]quinolin-1-yl)-2-methylpropan-2-ol] | 217 to 218 °C |
| CCOCc1nc2c(N)nc3cc(-c4cccnc4)ccc3c2n1CCNS(C)(=O)=O [Example 387, N-{2-[4-Amino-2-ethoxymethyl-7-(pyridin-3-yl)-1H-imidazo[4,5-c]quinolin-1-yl]ethyl}methanesulfonamide] | 233 to 235 °C |
| COc1ccc(Cc2nc3c(N)nc4cc(-c5ccccc5)ccc4c3n2CCOc2ccccc2)cc1 [Example 198, 2-(4-Methoxybenzyl)-1-(2-phenoxyethyl)-7-phenyl-1H-imidazo[4,5-c]quinolin-4-amine] | 197 to 198 °C |
| CC(C)Cn1cnc2c(N)nc3cccc(-c4ccccc4)c3c21 [Example 482, 1-(2-Methylpropyl)-9-phenyl-1H-imidazo[4,5-c]quinolin-4-amine] | 263 to 265 °C |
| CCCCc1nc2c(N)nc3cc(-c4ccccc4)ccc3c2n1CCCS(C)(=O)=O [Example 10, 2-Butyl-1-(3-methanesulfonylpropyl)-7-phenyl-1H-imidazo[4,5-c]quinolin-4-amine] | 214 to 216 °C |
| CCCc1nc2c(N)nc3cc(Cc4ccccc4)ccc3c2n1CC(C)(C)O (hydrate or solvate) [Example 432, 1-(4-Amino-7-benzyl-2-propyl-1H-imidazo[4,5-c]quinolin-1-yl)-2-methylpropan-2-ol] | 130 to 131 °C |
| COCc1nc2c(N)nc3cc(-c4cnccc4OC)ccc3c2n1CC(C)(C)O [Example 399, 1-[4-Amino-2-methoxymethyl-7-(4-methoxypyridin-3-yl)-1H-imidazo[4,5-c]quinolin-1-yl]-2-methylpropan-2-ol] | 220.5 to 222 °C |
| CCCc1nc2c(N)nc3cc(CCc4cccc(OC)c4)ccc3c2n1CC(C)C [Example 458, 7-[2-(3-Methoxyphenyl)ethyl]-1-(2-methylpropyl)-2-propyl-1H-imidazo[4,5-c]quinolin-4-amine] | 155 to 157 °C |
| COCCc1nc2c(N)nc3ccc(-c4csc5ccccc45)cc3c2n1CCCN1CCCC1=O [Example 190, 1-{3-[4-amino-8-(benzo[b]thiophen-3-yl)-2-(2-methoxyethyl)-1H-imidazo[4,5-c]quinolin-1-yl]propyl}pyrrolidin-2-one] | 202 to 205 °C |
| CCCc1nc2c(N)nc3cc(CCc4ccccc4OC)ccc3c2n1CC(C)C (as salt: HCl) [Example 460, 7-[2-(2-Methoxyphenyl)ethyl]-1-(2-methylpropyl)-2-propyl-1H-imidazo[4,5-c]quinolin-4-amine] | > 250 °C |
| CCOCc1nc2c(N)nc3cc(-c4ccccc4)ccc3c2n1CC1CCNCC1 [Example 192, 2-Ethoxymethyl-7-phenyl-1-(piperidin-4-ylmethyl)-1H-imidazo[4,5-c]quinolin-4-amine] | 142 to 143 °C |
| CCOCc1nc2c(N)nc3cc(-c4ccc(CO)cc4)ccc3c2n1CCCOC [Example 166, 2-Ethoxymethyl-1-(3-methoxypropyl)-7-(4-hydroxymethylphenyl)-1H-imidazo[4,5-c]quinolin-4-amine] | 228 to 229 °C |
| CCCCc1nc2c(N)nc3cc(-c4ccsc4)ccc3c2n1CC(C)C [Example 1, 2-Butyl-1-isobutyl-7-(thiophen-3-yl)-1H-imidazo[4,5-c]quinolin-4-amine] | 229 to 230 °C |
| CCOCc1nc2c(N)nc3cc(-c4cccnc4)ccc3c2n1CC1COC(C)(C)O1 (stereo not shown) [Example 159, 1-[(2,2-Dimethyl-1,3-dioxolan-4-yl)methyl]-2-ethoxymethyl-7-(pyridin-3-yl)-1H-imidazo[4,5-c]quinolin-4-amine] | 181 to 182 °C |
| CCOCc1nc2c(N)nc3cc(-c4ccco4)ccc3c2n1CCCOC [Example 168, 2-Ethoxymethyl-7-(furan-2-yl)-1-(3-methoxypropyl)-1H-imidazo[4,5-c]quinolin-4-amine] | 144 to 145 °C |
